{
  "source": "the kinase profiling compilation of Christmann-Franck et al. (2016)",
  "assay_in_all_cases": "KINOMEscan competition binding",
  "settings_in_all_cases": "compound 10.0 µM",
  "key": {"[1]": {"target": "DYRK2 (human) (UniProt Q92630)"}, "[2]": {"target": "FER (human) (UniProt P16591)"}, "[3]": {"target": "RPS6KA1 KD2 (human) (UniProt Q15418)"}, "[4]": {"target": "CHUK (human) (UniProt O15111)"}, "[5]": {"target": "AXL (human) (UniProt P30530)"}, "[6]": {"target": "LRRK2 (human) (UniProt Q5S007)"}, "[7]": {"target": "YSK4 (human) (UniProt Q56UN5)", "sequence (Q56UN5 whole entry, looked up)": "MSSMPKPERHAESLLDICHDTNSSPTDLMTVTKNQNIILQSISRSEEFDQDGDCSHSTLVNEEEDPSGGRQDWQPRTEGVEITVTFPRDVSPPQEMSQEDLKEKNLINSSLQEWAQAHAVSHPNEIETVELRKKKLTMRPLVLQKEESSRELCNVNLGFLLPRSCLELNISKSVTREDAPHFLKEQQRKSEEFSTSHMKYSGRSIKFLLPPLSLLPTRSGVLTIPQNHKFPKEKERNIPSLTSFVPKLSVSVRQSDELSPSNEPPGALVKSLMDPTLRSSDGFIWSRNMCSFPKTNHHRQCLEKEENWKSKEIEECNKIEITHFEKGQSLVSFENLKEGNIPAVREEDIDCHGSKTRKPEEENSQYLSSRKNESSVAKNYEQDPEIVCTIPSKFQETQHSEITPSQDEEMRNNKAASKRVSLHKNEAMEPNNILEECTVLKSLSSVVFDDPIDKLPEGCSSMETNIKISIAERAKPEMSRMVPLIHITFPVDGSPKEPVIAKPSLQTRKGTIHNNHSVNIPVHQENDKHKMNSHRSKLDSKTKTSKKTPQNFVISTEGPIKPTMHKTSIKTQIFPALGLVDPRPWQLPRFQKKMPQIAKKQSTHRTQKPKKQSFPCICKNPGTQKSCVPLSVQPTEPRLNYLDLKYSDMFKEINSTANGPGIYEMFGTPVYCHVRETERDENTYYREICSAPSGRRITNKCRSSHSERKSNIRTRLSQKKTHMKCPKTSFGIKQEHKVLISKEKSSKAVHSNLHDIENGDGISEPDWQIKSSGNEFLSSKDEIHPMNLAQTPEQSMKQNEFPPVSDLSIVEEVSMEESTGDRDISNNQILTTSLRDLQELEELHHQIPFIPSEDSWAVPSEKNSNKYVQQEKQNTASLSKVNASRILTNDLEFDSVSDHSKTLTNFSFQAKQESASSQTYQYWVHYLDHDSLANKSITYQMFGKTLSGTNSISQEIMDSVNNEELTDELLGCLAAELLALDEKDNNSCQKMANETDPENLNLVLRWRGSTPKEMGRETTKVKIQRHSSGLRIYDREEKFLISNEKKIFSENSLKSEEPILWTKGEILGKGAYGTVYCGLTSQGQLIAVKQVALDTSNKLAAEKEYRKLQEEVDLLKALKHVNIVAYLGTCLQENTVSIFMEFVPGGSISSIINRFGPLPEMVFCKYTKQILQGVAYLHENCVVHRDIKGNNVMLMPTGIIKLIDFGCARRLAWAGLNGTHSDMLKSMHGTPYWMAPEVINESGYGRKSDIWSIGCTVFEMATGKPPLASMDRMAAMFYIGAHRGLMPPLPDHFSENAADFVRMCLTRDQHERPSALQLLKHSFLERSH"}, "[8]": {"test_system": "CPK1 (P.falciparum)"}, "[9]": {"target": "TAOK2 (human) (UniProt Q9UL54)"}, "[10]": {"target": "NEK6 (human) (UniProt Q9HC98)"}, "[11]": {"target": "BRSK1 (human) (UniProt Q8TDC3)"}, "[12]": {"target": "RPS6KB1 (human) (UniProt P23443)"}, "[13]": {"target": "MAP3K3 (human) (UniProt Q99759)"}, "[14]": {"target": "BTK (human) (UniProt Q06187)"}, "[15]": {"target": "NTRK2 (human) (UniProt Q16620)"}, "[16]": {"target": "CDKL2 (human) (UniProt Q92772)", "sequence (Q92772 whole entry, looked up)": "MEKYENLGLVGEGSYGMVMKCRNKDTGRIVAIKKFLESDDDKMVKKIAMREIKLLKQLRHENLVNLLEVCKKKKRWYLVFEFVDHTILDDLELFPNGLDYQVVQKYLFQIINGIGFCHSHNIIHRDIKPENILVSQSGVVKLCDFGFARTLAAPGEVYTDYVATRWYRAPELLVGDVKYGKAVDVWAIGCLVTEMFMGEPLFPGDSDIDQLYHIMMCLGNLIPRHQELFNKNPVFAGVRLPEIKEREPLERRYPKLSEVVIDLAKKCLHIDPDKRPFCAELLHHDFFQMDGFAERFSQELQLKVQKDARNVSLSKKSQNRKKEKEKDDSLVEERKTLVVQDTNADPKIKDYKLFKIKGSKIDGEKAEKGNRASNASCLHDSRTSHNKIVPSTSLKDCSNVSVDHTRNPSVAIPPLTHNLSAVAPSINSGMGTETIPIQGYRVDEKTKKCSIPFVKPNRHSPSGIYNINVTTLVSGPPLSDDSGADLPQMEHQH"}, "[17]": {"target": "DYRK1B (human) (UniProt Q9Y463)"}, "[18]": {"target": "CDK4 CCND3 (human) (UniProt P11802+P30281)"}, "[19]": {"target": "MAPK15 (human) (UniProt Q8TD08)", "sequence (Q8TD08 whole entry, looked up)": "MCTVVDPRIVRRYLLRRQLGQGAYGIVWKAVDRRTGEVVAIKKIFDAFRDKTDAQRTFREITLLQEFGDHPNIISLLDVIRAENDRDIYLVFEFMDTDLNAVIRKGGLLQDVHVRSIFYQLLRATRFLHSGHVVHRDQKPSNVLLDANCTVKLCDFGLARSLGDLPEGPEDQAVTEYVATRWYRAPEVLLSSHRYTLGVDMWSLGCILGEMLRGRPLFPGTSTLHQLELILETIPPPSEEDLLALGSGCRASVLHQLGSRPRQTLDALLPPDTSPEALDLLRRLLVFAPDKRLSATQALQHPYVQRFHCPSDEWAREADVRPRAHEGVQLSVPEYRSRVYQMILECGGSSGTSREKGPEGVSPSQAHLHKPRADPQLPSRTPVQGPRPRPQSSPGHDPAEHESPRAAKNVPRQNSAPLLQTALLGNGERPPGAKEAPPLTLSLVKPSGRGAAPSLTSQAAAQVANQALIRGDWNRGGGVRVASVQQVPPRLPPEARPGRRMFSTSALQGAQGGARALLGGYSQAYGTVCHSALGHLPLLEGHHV"}, "[20]": {"target": "MAP3K1 (human) (UniProt Q13233)"}, "[21]": {"test_system": "EGFR (human), P00533 [T790M]"}, "[22]": {"target": "CSF1R (human) (UniProt P07333)"}, "[23]": {"target": "CSNK1A1L (human) (UniProt Q8N752)"}, "[24]": {"target": "EPHA6 (human) (UniProt Q9UF33)"}, "[25]": {"target": "GRK1 (human) (UniProt Q15835)"}, "[26]": {"target": "SRMS (human) (UniProt Q9H3Y6)"}, "[27]": {"target": "RIOK3 (human) (UniProt O14730)"}, "[28]": {"target": "CDK9 (human) (UniProt P50750)"}, "[29]": {"target": "MAPK11 (human) (UniProt Q15759)"}, "[30]": {"target": "CDKL3 (human) (UniProt Q8IVW4)"}, "[31]": {"target": "MINK1 (human) (UniProt Q8N4C8)", "sequence (Q8N4C8 whole entry, looked up)": "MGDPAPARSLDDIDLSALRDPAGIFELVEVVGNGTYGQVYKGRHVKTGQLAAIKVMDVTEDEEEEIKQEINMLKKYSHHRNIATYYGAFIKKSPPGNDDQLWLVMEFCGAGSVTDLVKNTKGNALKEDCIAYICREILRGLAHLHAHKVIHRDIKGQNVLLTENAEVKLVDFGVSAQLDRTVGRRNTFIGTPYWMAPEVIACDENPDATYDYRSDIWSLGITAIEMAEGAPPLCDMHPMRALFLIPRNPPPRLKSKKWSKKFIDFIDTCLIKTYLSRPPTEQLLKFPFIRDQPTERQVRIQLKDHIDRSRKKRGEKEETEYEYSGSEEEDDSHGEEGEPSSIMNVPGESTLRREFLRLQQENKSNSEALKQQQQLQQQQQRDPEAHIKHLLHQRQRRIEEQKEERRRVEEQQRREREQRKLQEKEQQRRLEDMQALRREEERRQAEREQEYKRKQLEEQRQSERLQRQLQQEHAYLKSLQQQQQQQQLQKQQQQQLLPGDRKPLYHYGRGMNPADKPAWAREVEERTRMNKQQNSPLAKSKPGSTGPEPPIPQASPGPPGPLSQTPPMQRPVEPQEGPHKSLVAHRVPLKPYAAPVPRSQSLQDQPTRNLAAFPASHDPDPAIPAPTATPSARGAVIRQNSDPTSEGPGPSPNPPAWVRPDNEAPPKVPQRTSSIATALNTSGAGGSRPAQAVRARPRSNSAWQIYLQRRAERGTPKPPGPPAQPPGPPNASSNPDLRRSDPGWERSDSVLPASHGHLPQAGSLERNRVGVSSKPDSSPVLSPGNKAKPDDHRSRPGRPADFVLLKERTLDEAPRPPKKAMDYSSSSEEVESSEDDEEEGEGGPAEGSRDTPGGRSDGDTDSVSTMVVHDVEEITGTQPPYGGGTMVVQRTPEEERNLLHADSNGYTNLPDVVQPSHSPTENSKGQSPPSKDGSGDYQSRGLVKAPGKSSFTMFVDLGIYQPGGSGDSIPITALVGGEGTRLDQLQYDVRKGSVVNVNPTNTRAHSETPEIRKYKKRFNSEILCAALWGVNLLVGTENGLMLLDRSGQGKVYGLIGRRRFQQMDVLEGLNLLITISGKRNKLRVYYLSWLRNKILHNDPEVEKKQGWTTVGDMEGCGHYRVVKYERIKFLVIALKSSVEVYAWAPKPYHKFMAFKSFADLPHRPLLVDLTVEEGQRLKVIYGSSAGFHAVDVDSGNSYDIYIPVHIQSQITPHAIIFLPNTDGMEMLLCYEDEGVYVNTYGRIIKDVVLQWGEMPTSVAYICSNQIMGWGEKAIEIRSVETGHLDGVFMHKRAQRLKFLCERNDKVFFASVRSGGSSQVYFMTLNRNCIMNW"}, "[32]": {"target": "MAPK6 (human) (UniProt Q16659)"}, "[33]": {"target": "LATS2 (human) (UniProt Q9NRM7)"}, "[34]": {"test_system": "FLT3 (human), P36888 [K663Q]"}, "[35]": {"target": "PRKX (human) (UniProt P51817)", "sequence (P51817 whole entry, looked up)": "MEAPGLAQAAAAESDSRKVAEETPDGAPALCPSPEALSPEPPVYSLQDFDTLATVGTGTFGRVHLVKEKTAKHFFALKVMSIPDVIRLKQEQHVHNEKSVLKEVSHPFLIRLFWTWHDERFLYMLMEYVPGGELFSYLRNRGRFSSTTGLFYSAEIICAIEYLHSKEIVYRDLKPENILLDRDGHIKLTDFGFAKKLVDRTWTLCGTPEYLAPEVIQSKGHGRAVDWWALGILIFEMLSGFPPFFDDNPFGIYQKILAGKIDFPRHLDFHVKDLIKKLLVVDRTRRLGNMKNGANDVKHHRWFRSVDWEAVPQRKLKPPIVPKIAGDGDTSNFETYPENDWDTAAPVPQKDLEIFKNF"}, "[36]": {"target": "MAP2K1 (human) (UniProt Q02750)"}, "[37]": {"target": "RIOK1 (human) (UniProt Q9BRS2)"}, "[38]": {"target": "MTOR (human) (UniProt P42345)"}, "[39]": {"target": "EPHA8 (human) (UniProt P29322)", "sequence (P29322 whole entry, looked up)": "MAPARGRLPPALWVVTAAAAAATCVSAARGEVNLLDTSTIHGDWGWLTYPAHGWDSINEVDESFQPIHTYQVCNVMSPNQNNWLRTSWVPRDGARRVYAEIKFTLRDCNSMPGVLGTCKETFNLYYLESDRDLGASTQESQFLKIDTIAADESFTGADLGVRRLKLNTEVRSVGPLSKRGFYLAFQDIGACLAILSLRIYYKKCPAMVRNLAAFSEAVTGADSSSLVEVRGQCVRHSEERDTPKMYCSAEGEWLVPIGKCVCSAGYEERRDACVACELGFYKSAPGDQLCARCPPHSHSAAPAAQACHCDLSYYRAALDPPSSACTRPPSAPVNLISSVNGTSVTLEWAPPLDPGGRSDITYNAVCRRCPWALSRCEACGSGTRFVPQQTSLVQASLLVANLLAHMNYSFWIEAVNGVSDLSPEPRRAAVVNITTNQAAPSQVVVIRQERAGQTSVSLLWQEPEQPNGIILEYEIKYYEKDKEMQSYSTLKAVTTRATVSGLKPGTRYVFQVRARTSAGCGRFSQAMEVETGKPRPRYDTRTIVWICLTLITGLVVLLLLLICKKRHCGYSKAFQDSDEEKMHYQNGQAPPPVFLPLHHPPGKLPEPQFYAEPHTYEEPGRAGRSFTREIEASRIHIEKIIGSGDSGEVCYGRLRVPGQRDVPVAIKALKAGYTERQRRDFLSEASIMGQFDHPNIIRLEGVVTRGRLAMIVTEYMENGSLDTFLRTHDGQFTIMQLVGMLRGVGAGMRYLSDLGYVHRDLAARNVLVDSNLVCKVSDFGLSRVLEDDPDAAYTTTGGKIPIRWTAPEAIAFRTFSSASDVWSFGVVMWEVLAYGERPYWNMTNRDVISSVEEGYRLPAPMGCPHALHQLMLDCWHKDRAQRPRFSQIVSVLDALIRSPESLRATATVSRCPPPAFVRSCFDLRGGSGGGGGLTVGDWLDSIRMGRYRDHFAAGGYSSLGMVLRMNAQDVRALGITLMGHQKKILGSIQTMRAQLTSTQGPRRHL"}, "[40]": {"target": "CDK17 (human) (UniProt Q00537)"}, "[41]": {"target": "TGFBR2 (human) (UniProt P37173)"}, "[42]": {"target": "TGFBR1 (human) (UniProt P36897)"}},
  "data": [
    {"molecule": "Cc1cc([C@@H](C)Nc2ccccc2C(=O)O)c2nc(N3CCOCC3)cc(=O)n2c1", "values": [
      {"measurement": "kinase still bound, per cent of control", "setting": "[1]", "value": 72, "unit": "%"},
      {"measurement": "kinase still bound, per cent of control", "setting": "[2]", "value": 81, "unit": "%"},
      {"measurement": "kinase still bound, per cent of control", "setting": "[3]", "value": 76, "unit": "%"},
      {"measurement": "kinase still bound, per cent of control", "setting": "[4]", "value": 69, "unit": "%"},
      {"measurement": "kinase still bound, per cent of control", "setting": "[5]", "value": 100, "unit": "%"},
      {"measurement": "kinase still bound, per cent of control", "setting": "[6]", "value": 97, "unit": "%"},
      {"measurement": "kinase still bound, per cent of control", "setting": "[7]", "value": 100, "unit": "%"},
      {"measurement": "kinase still bound, per cent of control", "setting": "[8]", "value": 75, "unit": "%"},
      {"measurement": "kinase still bound, per cent of control", "setting": "[9]", "value": 89, "unit": "%"},
      {"measurement": "kinase still bound, per cent of control", "setting": "[10]", "value": 100, "unit": "%"},
      {"measurement": "kinase still bound, per cent of control", "setting": "[11]", "value": 100, "unit": "%"},
      {"measurement": "kinase still bound, per cent of control", "setting": "[12]", "value": 100, "unit": "%"},
      {"measurement": "kinase still bound, per cent of control", "setting": "[13]", "value": 77, "unit": "%"},
      {"measurement": "kinase still bound, per cent of control", "setting": "[14]", "value": 80, "unit": "%"},
      {"measurement": "kinase still bound, per cent of control", "setting": "[15]", "value": 81, "unit": "%"},
      {"measurement": "kinase still bound, per cent of control", "setting": "[16]", "value": 100, "unit": "%"},
      {"measurement": "kinase still bound, per cent of control", "setting": "[17]", "value": 100, "unit": "%"},
      {"measurement": "kinase still bound, per cent of control", "setting": "[18]", "value": 62, "unit": "%"},
      {"measurement": "kinase still bound, per cent of control", "setting": "[19]", "value": 100, "unit": "%"},
      {"measurement": "kinase still bound, per cent of control", "setting": "[20]", "value": 100, "unit": "%"},
      {"measurement": "kinase still bound, per cent of control", "setting": "[21]", "value": 100, "unit": "%"},
      {"measurement": "kinase still bound, per cent of control", "setting": "[22]", "value": 55, "unit": "%"},
      {"measurement": "kinase still bound, per cent of control", "setting": "[23]", "value": 94, "unit": "%"},
      {"measurement": "kinase still bound, per cent of control", "setting": "[24]", "value": 100, "unit": "%"},
      {"measurement": "kinase still bound, per cent of control", "setting": "[25]", "value": 81, "unit": "%"},
      {"measurement": "kinase still bound, per cent of control", "setting": "[26]", "value": 100, "unit": "%"},
      {"measurement": "kinase still bound, per cent of control", "setting": "[27]", "value": 100, "unit": "%"},
      {"measurement": "kinase still bound, per cent of control", "setting": "[28]", "value": 89, "unit": "%"},
      {"measurement": "kinase still bound, per cent of control", "setting": "[29]", "value": 100, "unit": "%"},
      {"measurement": "kinase still bound, per cent of control", "setting": "[30]", "value": 96, "unit": "%"},
      {"measurement": "kinase still bound, per cent of control", "setting": "[31]", "value": 100, "unit": "%"},
      {"measurement": "kinase still bound, per cent of control", "setting": "[32]", "value": 78, "unit": "%"},
      {"measurement": "kinase still bound, per cent of control", "setting": "[33]", "value": 97, "unit": "%"},
      {"measurement": "kinase still bound, per cent of control", "setting": "[34]", "value": 15, "unit": "%"},
      {"measurement": "kinase still bound, per cent of control", "setting": "[35]", "value": 100, "unit": "%"},
      {"measurement": "kinase still bound, per cent of control", "setting": "[36]", "value": 100, "unit": "%"},
      {"measurement": "kinase still bound, per cent of control", "setting": "[37]", "value": 75, "unit": "%"},
      {"measurement": "kinase still bound, per cent of control", "setting": "[38]", "value": 18, "unit": "%"},
      {"measurement": "kinase still bound, per cent of control", "setting": "[39]", "value": 82, "unit": "%"},
      {"measurement": "kinase still bound, per cent of control", "setting": "[40]", "value": 100, "unit": "%"},
      {"measurement": "kinase still bound, per cent of control", "setting": "[41]", "value": 100, "unit": "%"},
      {"measurement": "kinase still bound, per cent of control", "setting": "[42]", "value": 100, "unit": "%"}
    ]}
  ]
}
